From patent US4948782A, “A method of promoting the growth of domestic animals with erythromycin derivative containing composition” (Kitasato Kenkyusho, priority 1987, dated 1990)
In brackets after ≈: the same amount, converted by molar mass.

Assays:
Format in all cases: cell-based
[1] = tested on: Staphylococcus aureus FDA 209P; experiment: MIC, Staphylococcus aureus FDA 209P (SA(2)); details: Staphylococcus aureus FDA 209P; for MIC: Staphylococcus aureus, FDA209P, read-out: MIC SA (2)
From the text: (§1) The minimum inhibitory concentrations (MIC: mcg/ml) of the erythromycin derivatives of the present invention and the control erythromycin derivative (*) as the known growth promoting agent on typical test bacteria are shown in the following Tables 1 to 5.
SA(2): Staphylococcus aureus FDA 209P

Bacillus cereus IFO 3001 = experiment: MIC, Bacillus cereus IFO 3001 (BC); details: for MIC: Bacillus cereus, IFO3001, Bacillus cereus IFO 3001, read-out: MIC BC; for MIC BC: Bacillus cereus IFO 3001
[2] = tested on: Staphylococcus aureus ATCC 6538P; experiment: MIC, Staphylococcus aureus ATCC 6538P (SA(1)); details: Staphylococcus aureus ATCC 6538P; for MIC: Staphylococcus aureus, ATCC6538P, read-out: MIC SA (1)
From the text: as §1
SA(1): Staphylococcus aureus ATCC 6538P

Bacillus subtilis = experiment: MIC, Bacillus subtilis (BS); details: for MIC: read-out: MIC BS
Escherichia coli NIHJ = experiment: MIC, Escherichia coli NIHJ (EC)
[3] = tested on: Klebsiella pneumoniae ATCC 10031; experiment: MIC, Klebsiella pneumoniae ATCC 10031 (KP); details: Klebsiella pneumoniae ATCC 10031; for MIC: ATCC10031, read-out: MIC KP

| MIC [1] [µg/mL] | MIC (Bacillus cereus IFO 3001) [µg/mL] | MIC [2] [µg/mL] | MIC (Bacillus subtilis) [µg/mL] | MIC (Escherichia coli NIHJ) [µg/mL] | MIC [3] [µg/mL] | MIC SA (2) [1] [µg/mL] | MIC BC (Bacillus cereus IFO 3001) [µg/mL] | MIC SA (1) [2] [µg/mL] | MIC BS (Bacillus subtilis) [µg/mL] | MIC EC (Escherichia coli NIHJ) [µg/mL] | MIC KP [3] [µg/mL] | Structure (SMILES) |
| --- | --- | --- | --- | --- | --- | --- | --- | --- | --- | --- | --- | --- |
| > 100 | > 100 | > 100 | > 100 | > 100 | > 100 |  |  |  |  |  |  | C#CC[N+](C)(C)[C@H]1C[C@@H](C)O[C@@H](O[C@@H]2[C@@H](C)[C@H](O[C@H]3C[C@@](C)(OC)[C@@H](OC=O)[C@H](C)O3)[C@@H](C)C(=O)O[C@H](CC)[C@@](C)(O)[C@H](O)[C@@H](C)C3=C(C)C[C@@]2(C)O3)[C@@H]1O [Compound 60] |
| > 100 | > 100 | > 100 | > 100 | > 100 | > 100 |  |  |  |  |  |  | CCC[N+](C)(C)[C@H]1C[C@@H](C)O[C@@H](O[C@@H]2[C@@H](C)[C@H](O[C@H]3C[C@@](C)(OC)[C@@H](O)[C@H](C)O3)[C@@H](C)C(=O)O[C@H](CC)[C@@]3(C)OC4(O[C@]2(C)CC4C)[C@H](C)[C@H]3O)[C@@H]1O (stereo partly drawn) [Compound 72] |
| > 100 | > 100 | > 100 | > 100 | > 100 | > 100 |  |  |  |  |  |  | CCC1OC(=O)C(C)C(OC2CC(C)(OC)C(O)C(C)O2)C(C)C(OC2OC(C)CC([N+](C)(C)CC(=O)O)C2O)C2(C)CC(C)=C(O2)C(C)C(O)C1(C)O (stereo not drawn) [Compound 31] |
| 50 | 12.5 | 25 | 12.5 | > 100 | > 100 |  |  |  |  |  |  | C=CC[N+](C)(C)[C@H]1C[C@@H](C)O[C@@H](O[C@@H]2[C@@H](C)[C@H](O[C@H]3C[C@@](C)(OC)[C@@H](O)[C@H](C)O3)[C@@H](C)C(=O)O[C@H](CC)[C@@](C)(O)[C@H](O)[C@@H](C)C(=O)[C@H](C)C[C@@]2(C)O)[C@@H]1O [Compound 77] |
| 100 | 100 | 50 | 50 | > 100 | > 100 |  |  |  |  |  |  | C#CC[N+](C)(C)C1CC(C)OC(OC2C(C)C(OC3CC(C)(OC)C(O)C(C)O3)C(C)C(=O)OC(CC)C3(C)OB(c4ccccc4)OC3C(C)C3=C(C)CC2(C)O3)C1O (stereo not drawn) [Compound 56] |
| > 100 | > 100 | > 100 | > 100 | > 100 | > 100 |  |  |  |  |  |  | CC[C@H]1OC(=O)[C@H](C)[C@@H](O[C@H]2C[C@@](C)(OC)[C@@H](OC=O)[C@H](C)O2)[C@H](C)[C@@H](O[C@@H]2O[C@H](C)C[C@H]([N+](C)(C)C)[C@H]2O)[C@@]2(C)CC(C)=C(O2)[C@H](C)[C@@H](O)[C@]1(C)O [Compound 58] |
| > 100 | > 100 | > 100 | > 100 | > 100 | > 100 |  |  |  |  |  |  | CCCN(C)C1CC(C)OC(OC2C(C)C(OC3CC(C)(OC)C(O)C(C)O3)C(C)C(=O)OC(CC)C(C)(O)C(O)C(C)C3=C(C)CC2(C)O3)C1O (stereo not drawn) [Compound 36] |
| 12.5 (≈ 17.4 µM) | 12.5 (≈ 17.4 µM) | 12.5 (≈ 17.4 µM) | 6.25 (≈ 8.71 µM) | > 100 | > 100 |  |  |  |  |  |  | CC[C@H]1OC(=O)[C@H](C)[C@@H](O[C@H]2C[C@@](C)(OC)[C@@H](O)[C@H](C)O2)[C@H](C)[C@@H](O[C@@H]2O[C@H](C)C[C@H](N(C)C)[C@H]2O)[C@@]2(C)CC(C)C(O2)[C@H](C)[C@@H](O)[C@]1(C)O (stereo partly drawn) [*1, reference compound] |
|  |  |  |  |  |  | > 100 | > 100 | > 100 | > 100 | > 100 | > 100 | C#CC[N+](C)(C)C1CC(C)OC(OC2C(C)C(OC3CC(C)(OC)C(O)C(C)O3)C(C)C(=O)OC(CC)C(C)(O)C(O)C(C)C3=C(C)CC2(C)O3)C1O (stereo not drawn) [Compound 51] |
| > 100 | > 100 | > 100 | > 100 | > 100 | > 100 |  |  |  |  |  |  | C=CC[N+](CC=C)(CC=C)C1CC(C)OC(OC2C(C)C(OC3CC(C)(OC)C(O)C(C)O3)C(C)C(=O)OC(CC)C(C)(O)C(O)C(C)C3=C(C)CC2(C)O3)C1O (stereo not drawn) [Compound 46] |
| > 100 |  | 100 | > 100 | > 100 | > 100 |  |  |  |  |  |  | CCC1OC(=O)C(C)C(OC2CC(C)(OC)C(O)C(C)O2)C(C)C(OC2OC(C)CC([N+](C)(C)CC3CC3)C2O)C2(C)CC(C)=C(O2)C(C)C(O)C1(C)O (stereo not drawn) [Compound 50] |
|  |  |  |  |  |  |  | > 100 | > 100 | > 100 | > 100 | > 100 | CCC1OC(=O)C(C)C(OC2CC(C)(OC)C(O)C(C)O2)C(C)C(OC2OC(C)CC([N+](C)(C)CC)C2O)C2(C)CC(C)=C(O2)C(C)C(O)C1(C)O (stereo not drawn) [Compound 19] |

The remaining lines, values behind:

| Structure (SMILES) | MIC [1] [µg/mL] | MIC (Bacillus cereus IFO 3001) [µg/mL] | MIC [2] [µg/mL] | MIC (Bacillus subtilis) [µg/mL] | MIC (Escherichia coli NIHJ) [µg/mL] | MIC [3] [µg/mL] | MIC SA (2) [1] [µg/mL] | MIC BC (Bacillus cereus IFO 3001) [µg/mL] | MIC SA (1) [2] [µg/mL] | MIC BS (Bacillus subtilis) [µg/mL] | MIC EC (Escherichia coli NIHJ) [µg/mL] | MIC KP [3] [µg/mL] |
| --- | --- | --- | --- | --- | --- | --- | --- | --- | --- | --- | --- | --- |
| CCC1OC(=O)C(C)C(OC2CC(C)(OC)C(O)C(C)O2)C(C)C(OC2OC(C)CC([N+]3(C)CCCCC3)C2O)C2(C)CC(C)=C(O2)C(C)C(O)C1(C)O (stereo not drawn) [Compound 25] | > 100 | > 100 | > 100 | > 100 | > 100 | > 100 |  |  |  |  |  |  |
| CC[C@H]1OC(=O)[C@H](C)[C@@H](O[C@H]2C[C@@](C)(OC)[C@@H](O)[C@H](C)O2)[C@H](C)[C@@H](O[C@@H]2O[C@H](C)C[C@H]([N+](C)(C)CC)[C@H]2O)[C@@]2(C)CC(C)C(O2)[C@H](C)[C@@H](O)[C@]1(C)O (stereo partly drawn) [Compound 63] | > 100 | > 100 | > 100 | > 100 | > 100 | > 100 |  |  |  |  |  |  |
| CCC1OC(=O)C(C)C(OC2CC(C)(OC)C(O)C(C)O2)C(C)C(OC2OC(C)CC([N+](CC)(CC)CC)C2O)C2(C)CC(C)=C(O2)C(C)C(O)C1(C)O (stereo not drawn) [Compound 23] | > 100 | > 100 | > 100 | > 100 | > 100 | > 100 |  |  |  |  |  |  |
| C=CCNC1CC(C)OC(OC2C(C)C(OC3CC(C)(OC)C(O)C(C)O3)C(C)C(=O)OC(CC)C(C)(O)C(O)C(C)C3=C(C)CC2(C)O3)C1O (stereo not drawn) [Compound 39] | > 100 | > 100 | > 100 | > 100 | > 100 | > 100 |  |  |  |  |  |  |
| CCC1OC(=O)C(C)C(OC2CC(C)(OC)C(O)C(C)O2)C(C)C(OC2OC(C)CC(NC)C2O)C2(C)CC(C)=C(O2)C(C)C(OC(C)=O)C1(C)OC(C)=O (stereo not drawn) [Compound 52] | > 100 | > 100 | > 100 | > 100 | > 100 | > 100 |  |  |  |  |  |  |
| CCC1OC(=O)C(C)C(OC2CC(C)(OC)C(O)C(C)O2)C(C)C(OC2OC(C)CC([N+]3(CC)CCCCC3)C2O)C2(C)CC(C)=C(O2)C(C)C(O)C1(C)O (stereo not drawn) [Compound 26] | > 100 | > 100 | > 100 | > 100 | > 100 | > 100 |  |  |  |  |  |  |
| C#CC[N+](C)(C)[C@H]1C[C@@H](C)O[C@@H](O[C@@H]2[C@@H](C)[C@H](O[C@H]3C[C@@](C)(OC)[C@@H](O)[C@H](C)O3)[C@@H](C)C(=O)O[C@H](CC)[C@@](C)(O)[C@H](O)[C@@H](C)C3O[C@]2(C)CC3C)[C@@H]1OC(C)=O (stereo partly drawn) [Compound 68] | > 100 | > 100 | > 100 | > 100 | > 100 | > 100 |  |  |  |  |  |  |
| CCC1OC(=O)C(C)C(OC2CC(C)(OC)C(O)C(C)O2)C(C)C(OC2OC(C)CC([N+](C)(C)CC(=O)OC)C2O)C2(C)CC(C)=C(O2)C(C)C(O)C1(C)O (stereo not drawn) [Compound 30] | > 100 | > 100 | > 100 | > 100 | > 100 | > 100 |  |  |  |  |  |  |
| CCC1OC(=O)C(C)C(OC2CC(C)(OC)C(O)C(C)O2)C(C)C(OC2OC(C)CC([N+](C)(C)CC)C2O)C2(C)CC(C)=C(O2)C(C)C(OC(C)=O)C1(C)OC(C)=O (stereo not drawn) [Compound 29] | 50 | 100 | 100 | 100 | > 100 | > 100 |  |  |  |  |  |  |
| CC[C@H]1OC(=O)[C@H](C)[C@@H](O[C@H]2C[C@@](C)(OC)[C@@H](O)[C@H](C)O2)[C@H](C)[C@@H](O[C@@H]2O[C@H](C)C[C@H]([N+](C)(C)C)[C@H]2O)[C@@]2(C)CC(C)C3(O[C@@]1(C)[C@H](O)[C@H]3C)O2 (stereo partly drawn) [Compound 70] | > 100 | > 100 | > 100 | > 100 | > 100 | > 100 |  |  |  |  |  |  |
| CCC1OC(=O)C(C)C(OC2CC(C)(OC)C(O)C(C)O2)C(C)C(OC2OC(C)CC(N(C)CC)C2O)C2(C)CC(C)=C(O2)C(C)C(O)C1(C)O (stereo not drawn) [Compound 10] | > 100 | > 100 | > 100 | > 100 | > 100 | > 100 |  |  |  |  |  |  |
| CCC1OC(=O)C(C)C(OC2CC(C)(OC)C(O)C(C)O2)C(C)C(OC2OC(C)CC([N+](C)(C)CC#N)C2O)C2(C)CC(C)=C(O2)C(C)C(O)C1(C)O (stereo not drawn) [Compound 33] | > 100 | > 100 | > 100 | > 100 | > 100 | > 100 |  |  |  |  |  |  |
| CC[C@H]1OC(=O)[C@H](C)[C@@H](O[C@H]2C[C@@](C)(OC)[C@@H](O)[C@H](C)O2)[C@H](C)[C@@H](O[C@@H]2O[C@H](C)C[C@H](N(C)C)[C@H]2O)[C@@]2(C)CC(C)C3(O[C@@]1(C)[C@H](O)[C@H]3C)O2 (stereo partly drawn) [*2 (EM202), Anhydroerythromycin A, reference compound] | 12.5 (≈ 17.5 µM) |  | 12.5 (≈ 17.5 µM) |  |  |  |  |  |  |  |  |  |
